Source: patent US20210230213A1, “ARAMCHOL SALTS” (GALMED RESEARCH AND DEVELOPMENT LTD., priority 2013, published 2021)
Values joined by “and” are separate entries in the source; they are usually repeats but may differ in a detail not shown here. Equal entries are not always repeated.

What was measured:
[1] = Accelerated stability of Aramchol N-methylglucamine at 40° C./75% RH (Example 5); assay type: physicochemical; settings: for assay: calculated against free acid reference
Method: The following parameters were determined at t=0, t=1 week, t=2 weeks: appearance, LC-purity, LC-assay (the assay is calculated against the reference which is the free acid and therefore, the results are less than 100%), water content. The appearance and purity remained unchanged under the investigated conditions. […] The calculated assay remained relatively unchanged under the investigational conditions. Water content increased under the investigational conditions and the material seemed hygroscopic. The attraction of water in the solid state form was more prominent for material stored in an open container.

[2] = Twice daily administration for 10 days of Aramchol and Aramchol meglumine in humans (Example 9); assay type: in vivo; settings: free acid 300 mg, meglumine salt 383 mg
Method: 300 mg aramchol free acid were administered to human subjects twice daily, and 383 mg aramchol meglumine salt were administered to human subjects twice daily, as detailed in FIG. 13.

[3] = In vivo permeability / PK after intrajejunal administration in cannulated rats (Example 7); design: species or system male Wistar rats; settings: rat
Method: An in vivo permeability study of Aramchol salts was performed in male Wistar rats cannulated in the jugular vein and in the jejunum. Intestinal cannulation was performed in order to bypass protonation of Aramchol salts in acidic gastric pH. Aramchol salts solubilized in PBS (30 mg/mL) were administered to rats intestine (jejunum) in a dose of 100 mg/kg (based on free acid), via a cannula inserted into the proximal side of the jejunum. A suspension of Aramchol free acid (in PBS, 30 mg/mL) was administered via the same route and was used as control. Blood samples were withdrawn via a cannula inserted into jugular vein at pre-determined time points (pre-dose, 1 hr, 2 hr, 4 hr, 8 hr, 12 hr, 24 hr post dose). Plasma concentrations of Aramchol (free acid) were measured using a liquid chromatography-tandem mass spectrometry (LC-MS-MS) method by Analyst Bioanalytical Laboratories, Israel. All PK parameters were calculated using non-compartmental analysis. Only those plasma concentrations equal to or greater than the lower limit of quantitation (LOQ) (48.66 ng/mL) were used in the analysis. Plasma concentrations <LOQ that occurred from pre-dose to the first concentration ≥LOQ were treated as 0. Actual sampling times were used for all pharmacokinetic analyses. The following PK parameters were calculated: maximum plasma concentration (Cmax), time to Cmax (Tmax), area under the plasma concentration-time curve from time of administration until the last plasma concentration (AUC0-4), AUC/dose, elimination half-life (t½). Cmax and Tmax were taken directly from the data. Area under the curve from zero to the final sample with a concentration ≥LOQ. AUC0-4 was calculated using the linear trapezoidal method.

Bulk and tapped density = assay type: physicochemical
Text: Measurements of tapped and bulk densities are used to predict the flow properties and compressibility of powders. These two properties are important for manufacture of solid dosage formulations, such as tablets and capsules. Compounds with low values of tapped and bulk densities may be subject to difficulties in tablet compression, and therefore may require additional processing for improving flow properties. […] Therefore, to improve flow properties a wet granulation process is used prior to tablet compression.

[4] = Dynamic Vapour Sorption (DVS); assay type: physicochemical
Method: The samples was weighed in a glass pan, typically 20-30 mg, and equilibrated at 0% relative humidity (RH). After the material had dried, the RH was increased with 10% per step for 1 hour per increment, ending at […].
The software used for data collection was DVSWin v3.01 No Video. Data analysis was performed using DVS Standard Analysis Suite v6.3.0 (Standard).
After completion of sorption cycle, the material was dried. XRPD was performed before and after DVS.

[5] = water
[6] = Pharmacokinetics of capsules in dogs, single dose and BID (Example 8); settings: dogs
Method: Capsules containing 100 mg of Aramchol were dosed to dogs as either the free acid or the meglumine salt.
The complete data-set across all animals and time-points for each dose form (free acid or meglumine salt) were fit to single compartment PK models with first order rate of absorption Ka (h−1) and elimination parameterised by CL and V (rate of elimination=CL/V, h−1). For the meglumine salt group, the first dose data for M5 was removed.
Capsules containing 100 mg of Aramchol were dosed to dogs as either the free acid or the meglumine salt BID. […] A clinical study that investigated the plasma concentration of Aramchol after oral dosing of 300 mg BID at steady state was conducted in 16 healthy volunteers.

[7] = 100 mg/kg, mean ± standard error
[8] = capsule, Day 1, individual animals, listed as Aramchol meglumine salt
[9] = capsule, Day 1 single dose, Mean
[10] = capsule, Day 11, individual animals, listed as Aramchol meglumine salt
[11] = capsule, Day 11 final dose after BID dosing, Mean

## 3β-arachidylamido-7α,12α-dihydroxy-5β-cholan-24-oic acid N-methylglucamine salt
[1]; 40° C./75% RH, as a solution in a closed flask, T = 0
  purity: 99.5%
[1]; 40° C./75% RH, as a solution in a closed flask, T = 1 (week)
  purity: 99.5%
[1]; 40° C./75% RH, as a solution in a closed flask, T = 2 (weeks)
  purity: 99.5%
[1]; 40° C./75% RH, solid in a closed container, T = 0
  water: 1.2%
[1]; 40° C./75% RH, solid in a closed container, T = 1 (week)
  water: 1.6%
[1]; 40° C./75% RH, solid in a closed container, T = 2 (weeks)
  water: 2.0%
[1]; 40° C./75% RH, solid in an open container, T = 0
  water: 1.2%
[1]; 40° C./75% RH, solid in an open container, T = 1 (week)
  water: 4.3%
[1]; 40° C./75% RH, solid in an open container, T = 2 (weeks)
  water: 5.7%
[1]; 40° C./75% RH, solid state form in a closed container, T = 0
  purity: 99.5%
[1]; 40° C./75% RH, solid state form in a closed container, T = 1 (week)
  purity: 99.4%
[1]; 40° C./75% RH, solid state form in a closed container, T = 2 (weeks)
  purity: 99.5%
[1]; 40° C./75% RH, solid state form in an open container, T = 0
  purity: 99.5%
[1]; 40° C./75% RH, solid state form in an open container, T = 1 (week)
  purity: 99.5%
[1]; 40° C./75% RH, solid state form in an open container, T = 2 (weeks)
  purity: 99.5%
[1]; 40° C./75% RH, up to 2 weeks
  purity on exposure to 40° C./75% RH: no change to purity values
[1]; solid in a closed container, T = 0
  assay: 74.7%
[1]; solid in a closed container, T = 1 (week)
  assay: 72.8%
[1]; solid in a closed container, T = 2 (weeks)
  assay: 74.4%
[1]; solid in an open container, T = 0
  assay: 74.7%
[1]; solid in an open container, T = 1 (week)
  assay: 76.7%
[1]; solid in an open container, T = 2 (weeks)
  assay: 71.9%
[1]; solution in a closed flask, T = 0
  assay: 74.7%
[1]; solution in a closed flask, T = 1 (week)
  assay: 75.3%
[1]; solution in a closed flask, T = 2 (weeks)
  assay: 74.8%
[2]; BID for 10 days
  AUCss 0-12 h: 109 µg·h/mL
[2]; BID for 10 days, listed as 3β-arachidylamido-7α,12α-dihydroxy-5β-cholan-24-oic acid-meglumine salt
  Cavg: 8,318 ng/ml
[2]; BID for 10 days, listed as Aramchol Meglumine
  Cavg: 8318 ng/mL
[2]; BID for 10 days, listed as aramchol meglumine salt
  Cavg: 8318 ng/mL
[2]; BID
  AUCss: 109,000 ng*h/mL
[3]
  increase in Cmax compared to Aramchol free acid: 3.6 fold
[3]; 100 mg/kg (based on free acid) in PBS 30 mg/mL, plasma Aramchol (free acid), mean ± standard error
  Cmax: 5012.1 ± 1879.9 (5) ng/mL
[3]; [7]
  AUC(0-t): 33625.2 ± 9567.7 (5) hr × ng/mL
  AUC/dose: 331.7 ± 82.5 (5) hr × ng × kg/mL × mg
  t1/2: 5.2 ± 1.0 (5) hr
[3]; 100 mg/kg, median
  Tmax: 4.0 (5) [2-4] hr
Bulk and tapped density
  Bulk density: 0.57 g/mL
  Tapped density: 0.66 g/mL
[4]; Example 4 material, sorption to 95% RH, […]
  total mass uptake (DVS): 16%
[4]; RH raised from 0% in 10% steps to 95% RH, stepwise, reversible
  Mass uptake (DVS): 14.9% (stepwise; reversible)
[5]; Aramchol free acid and base 1:1, 50° C.
  Dissolved (50 in g in 1) at 50° C.: Yes
[5]; cooled to 20° C.
  salt remains in solution after cooling to 20° C.: no
[6]
  higher plasma exposure than free acid at the same molar dose: 26%
[6]; 100 mg BID capsules, AUC 0-72 h from last administration on day 11, N = 3
  AUCss: 1,143,428 ng*h/mL
[6]; capsule 100 mg Aramchol, Day 1 single dose, Mean
  Cmax: 4880 ng/mL
[6]; capsule, Day 1, individual animals (1M-3M free acid, 4M-6M meglumine salt), listed as Aramchol meglumine salt
  Cmax: 5770 ng/mL and 1720 ng/mL and 7160 ng/mL
[6]; [8]
  AUC0-12: 34.8 µg·h/mL and 3.8 µg·h/mL and 53.2 µg·h/mL
  AUCinf: 205 µg·h/mL and 66.9 µg·h/mL and 440 µg·h/mL
  Half-life: 19.2 h and 23.1 h and 26.1 h
  Tmax: 12 h and 24 h
[6]; [9]
  AUC0-12: 30.6 µg·h/mL
  AUCinf: 237 µg·h/mL
  Half-life: 22.8 h
  Tmax: 20 h
[6]; [10]
  AUC0-12: 365 µg·h/mL and 302 µg·h/mL and 315 µg·h/mL
  AUCinf: 1600 µg·h/mL and 1150 µg·h/mL and 1590 µg·h/mL
  Cmax: 37600 ng/mL and 38800 ng/mL and 28300 ng/mL
  Half-life: 29.6 h and 28.9 h and 35.3 h
  Tmax: 8 h and 4 h
[6]; [11]
  AUC0-12: 328 µg·h/mL
  AUCinf: 1450 µg·h/mL
  Cmax: 34900 ng/mL
  Half-life: 31.3 h
  Tmax: 6.67 h
[6]; compartmental modelling
  greater exposure using the salt (from model Cl): 28%
[6]; final dose day 11
  AUCinf from day 11 onwards: 1450 µg·h/mL
[6]; final dose day 11, steady state
  AUC0-12 D11: 328 µg·h/mL
[6]; first dose day 1, all animals
  AUCinf D1: 237 µg·h/mL
[6]; first dose day 1, animal 5M (M5) excluded
  AUCinf D1: 323 µg·h/mL
[6]; single compartment PK model
  Cl: 320
[6]; single dose day 1, animal 5M excluded
  AUCinf higher than the free acid: 34%
